The values that follow come from PubChem BioAssay (NCI).

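Cells were grown in 96-well plates and exposed to each compound for 48 hours at five concentrations; endpoints were interpolated linearly between bracketing concentrations, or set to the highest concentration if not reached. TGI denotes the concentration required for complete inhibition of growth.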

What all share (assay): NCI anticancer screen, dose series, 48 h
Test [1] has as its system EKVX NSCLC.
In test [2] the test system is ACHN renal.
In test [3] the test system is UACC-62 melanoma.
Test [4] deals with HCT-116 colon.
Test [5] concerns RPMI-8226 leukemia.
In test [6] the test system is MDA-MB-231 breast.
For test [7], the system named is OVCAR-5 ovarian.
Test [8] has as its system SNB-75 CNS.
The subject of test [9] is SR leukemia.
Test [10] concerns SF-295 CNS.
Test [11] deals with HCT-15 colon.
Test [12] has as its system MDA-N.
Test [13] has as its system PC-3 prostate.
Test [14] relates to NCI-H226 lung.
The subject of test [15] is T-47D breast.
For test [16], the system named is HCC-2998 colon.
The test system of test [17] is OVCAR-4 ovarian.
The subject of test [18] is NCI-H460 lung.
Test [19] has as its system CCRF-CEM leukemia.
In test [20] the test system is A498 renal.

As for `CCOC(=O)n1[nH]c(=O)n(-c2ccccc2)c1=O`, the TGI in [1], in test [2], in test [3], in [4], in test [5] and in test [6] was greater than 100 µM in each case. The TGI in [7], in [8], in test [9], in test [10], in test [11] and in [12] was greater than 100 µM each time. For the same molecule, the TGI in test [13], in test [14], in test [15], in test [16], in [17] and in test [18] was greater than 100 µM throughout. In addition, the TGI in test [19] is greater than 100 µM.

Regarding `Cn1c(=O)[nH]c2[nH]c3ccccc3c2c1=O`, the TGI in test [1], in test [2], in test [3], in [4], in test [5] and in [6] was greater than 100 µM throughout. Also, the TGI in [7], in test [8], in test [9], in test [10], in test [11] and in [12] was greater than 100 µM throughout. Further, the TGI in test [20], in test [14], in test [15], in [16] and in test [19] was greater than 100 µM in each case.

For the molecule `COC(=O)c1ccc(N=NN(C)COc2ccc(C#N)cc2)cc1`, the TGI in test [1], in [2], in test [4], in [5], in [6] and in [7] was greater than 100 µM each time. The TGI in test [8], in test [10], in test [11], in [12], in [20] and in test [13] was greater than 100 µM each time. Moreover, the TGI in [14], in [15], in test [16], in test [17], in [18] and in test [19] was greater than 100 µM each time.

On to `COC1=NC(NC2OCC(O)C(O)C2O)=C(NC(C)=O)CN1C` (stereo unspecified), for which the TGI in [1], in test [2], in [3], in test [4], in test [5] and in test [6] was greater than 100 µM each time. Moreover, the TGI in test [7], in [8], in test [10], in [11], in test [12] and in [20] was greater than 100 µM throughout. For the same molecule, the TGI in [14], in test [15], in test [16], in test [17], in test [18] and in test [19] was greater than 100 µM each time.

As to `O=C1C2=Cc3ccccc3OC2(O)Oc2cc(O)ccc21` (stereo unspecified), the TGI in [1], in [2], in test [3], in [4], in [5] and in [6] was greater than 100 µM throughout. The TGI in test [7], in [8], in [10], in [11], in test [12] and in [20] was greater than 100 µM in each case. Besides, the TGI in test [13] is greater than 100 µM; in test [14], greater than 100 µM; in test [15], greater than 100 µM; in [16], greater than 100 µM; in test [19], 88.7 µM.

`CCCCCCCCCCCCn1c(=O)cc(NCCCC)c2cc3c(NCCCC)cc(=O)n(CCCCCCCCCCCC)c3nc21`: the TGI in [2], in [3], in test [4], in [5], in test [6] and in test [8] was greater than 100 µM throughout. Besides, the TGI in [10], in [11], in [12], in test [20], in [13] and in test [14] was greater than 100 µM in each case. The TGI in test [15], in test [16], in [17] and in test [18] was greater than 100 µM throughout.

As for `CC1(C)C=C(/C=N/Nc2ccc([N+](=O)[O-])cc2)C(C#N)=C(O)C1(C#N)C#N`, the TGI in test [1], in test [2], in test [3], in test [4], in [5] and in [6] was greater than 100 µM each time. Also, the TGI in test [7], in [8], in test [9], in test [10], in test [11] and in [12] was greater than 100 µM throughout. For the same molecule, the TGI in test [13], in test [14], in test [15], in test [16], in [17] and in test [18] was greater than 100 µM each time. This molecule also had a TGI in test [19] greater than 100 µM.

With `CC(C)OCC(O)COc1ccc2ccc(=O)oc2c1` (stereo unspecified), the TGI in [1], in [2], in test [3], in test [4], in [5] and in [6] was greater than 100 µM throughout. The TGI in test [7], in [8], in [10], in [11], in [12] and in test [13] was greater than 100 µM in each case. Moreover, the TGI in test [15], in [16], in test [17], in [18] and in [19] was greater than 100 µM in each case.
